In article PMC6155332, “Antimalarials with Benzothiophene Moieties as Aminoquinoline Partners” (Molecules : A Journal of Synthetic Chemistry and Natural …, 2017):

Each compound was assayed on P. falciparum W2 (CQ resistant (CQR) strain) (assay: microbe, parasite or virus in culture). Details: IC50 W2 / IC50 D6.
Assay type: cell-based, Plasmodium falciparum
In the case of `C#Cc1ccc(-c2ccc(-c3ccc(CNCCCCCCCCNc4ccnc5ccccc45)cc3)s2)cc1` [Compound 52], the “RI W2/D6 (resistance index)” value is reported as 1.5. For `N#Cc1ccc(-c2ccc(-c3ccc(CNCCCCCCNc4ccnc5ccccc45)cc3)s2)cc1` [Compound 44], the “RI W2/D6 (resistance index)” value was 0.7. With `N#Cc1ccc2c(-c3ccc(CNCCCCCCNc4ccnc5ccccc45)cc3)csc2c1` [Compound 32] the “RI W2/D6 (resistance index)” value was 1.8. For `N#Cc1ccc(-c2ccc(-c3ccc(CNCCCCCNc4ccnc5cc(Cl)ccc45)cc3)s2)cc1` [Compound 40], the “RI W2/D6 (resistance index)” value was 0.5. `N#Cc1ccc(-c2ccc(-c3ccc(CNCCNc4ccnc5cc(Cl)ccc45)cc3)s2)cc1` [Compound 37] was tested, and the “RI W2/D6 (resistance index)” value was 0.5. For `N#Cc1ccc2scc(-c3ccc(CNCCCCCCNc4ccnc5ccccc45)cc3)c2c1` [Compound 30], the “RI W2/D6 (resistance index)” value was 6.8. In the case of `Fc1ccc2c(CNCCCNc3ccnc4ccccc34)csc2c1` [Compound 12], the “RI W2/D6 (resistance index)” value is reported as 8.8. `N#Cc1ccc2scc(-c3ccc(CNCCCCNc4ccnc5ccccc45)cc3)c2c1` [Compound 28] was tested, and the “RI W2/D6 (resistance index)” value was 31.3. In the case of `c1ccc2sc(CNCCCNc3ccnc4ccccc34)cc2c1` [Compound 8], the “RI W2/D6 (resistance index)” value is reported as 5.2. For `N#Cc1ccc(-c2ccc(-c3ccc(CNCCCCNc4ccnc5ccccc45)cc3)s2)cc1` [Compound 43], the “RI W2/D6 (resistance index)” value was 26. With `c1ccc2sc(CNCCCCNc3ccnc4ccccc34)cc2c1` [Compound 9] the “RI W2/D6 (resistance index)” value was 13.6.

Same assay, conditions: Plasmodium falciparum, W2, read-out: In Vitro Antimalarial Activity (P. falciparum, IC50, nM) W2
`CCN(CC)CCCC(C)Nc1ccnc2cc(Cl)ccc12` (centres unmarked) [CQ, chloroquine, reference compound] gave an IC50 of 595 nM. For `C#Cc1ccc(-c2ccc(-c3ccc(CNCCCCCCCCNc4ccnc5ccccc45)cc3)s2)cc1` [Compound 52], the IC50 was 259 nM. In the case of `N#Cc1ccc(-c2ccc(-c3ccc(CNCCCCCCNc4ccnc5ccccc45)cc3)s2)cc1` [Compound 44], the IC50 is reported as 74 nM. Compound `N#Cc1ccc2c(-c3ccc(CNCCCCCCNc4ccnc5ccccc45)cc3)csc2c1` [Compound 32] has an IC50 of 102 nM. With `N#Cc1ccc(-c2ccc(-c3ccc(CNCCCCCNc4ccnc5cc(Cl)ccc45)cc3)s2)cc1` [Compound 40] the IC50 was 41 nM. With `N#Cc1ccc(-c2ccc(-c3ccc(CNCCNc4ccnc5cc(Cl)ccc45)cc3)s2)cc1` [Compound 37] the IC50 was 26 nM. Compound `N#Cc1ccc2scc(-c3ccc(CNCCCCCCNc4ccnc5ccccc45)cc3)c2c1` [Compound 30] has an IC50 of 81 nM. `Fc1ccc2c(CNCCCNc3ccnc4ccccc34)csc2c1` [Compound 12] showed an IC50 of 185 nM. `N#Cc1ccc2scc(-c3ccc(CNCCCCNc4ccnc5ccccc45)cc3)c2c1` [Compound 28] showed an IC50 of 188 nM. Compound `c1ccc2sc(CNCCCNc3ccnc4ccccc34)cc2c1` [Compound 8] has an IC50 of 104 nM. `N#Cc1ccc(-c2ccc(-c3ccc(CNCCCCNc4ccnc5ccccc45)cc3)s2)cc1` [Compound 43] was tested, and the IC50 was 106 nM. For `c1ccc2sc(CNCCCCNc3ccnc4ccccc34)cc2c1` [Compound 9], the IC50 was 191 nM.

The compounds below were run on P. berghei (ANKA) (assay: Modified Thompson test, P. berghei mouse efficacy). Details: 160 mg/kg/day p.o. days 3–5; days 6–31.
Assay type: in vivo, Plasmodium berghei
Method: In a separate host toxicity study, benzothiophene 25 was subjected to in vivo toxicity evaluation. […]
The P. berghei (ANKA) mouse efficacy tests were conducted using a modified version of the Thompson test. Groups of five mice were inoculated intraperitoneally with erythrocytes infected with P. berghei on day 0. Drugs were suspended in 0.5% hydroxyethylcellulose-0.1% Tween 80 and administered orally once a day beginning on day 3 post infection. […] Cure was defined as survival (with no parasitemia) until day 31 post-treatment. Parasitemia was determined by thin-blood Giemsa-stained smears prepared from mice tail blood of each animal on days 0, 3, 6, 10, 13, 17, 20, 24, 27, and 31 (postinfection). The slides were examined under a light microscope.
In the case of `CCN(CC)CCCC(C)Nc1ccnc2cc(Cl)ccc12` (centres unmarked) [CQ, chloroquine, reference compound], the “Parasitemia D6-D31” value is reported as 5 mice negative.

Same assay, conditions: infected mice, 160 mg/kg/day p.o., days 3–5 postinfection
With `CCN(CC)CCCC(C)Nc1ccnc2cc(Cl)ccc12` (centres unmarked) [CQ, chloroquine, reference compound] the “Mean Survival Time (MST, Days)” value was >31 days and the “Mice Alive on Day 31” value was 5/5.

These compounds were tested on P. falciparum D6 (CQ susceptible (CQS) strain) (assay: Malaria SYBR Green Fluorescence Assay, D6 strain). Details: Plasmodium falciparum; CQ susceptible African D6 clone; read-out: In Vitro Antimalarial Activity (P. falciparum, IC50, nM) D6.
Assay type: cell-based
Compound `CCN(CC)CCCC(C)Nc1ccnc2cc(Cl)ccc12` (centres unmarked) [CQ, chloroquine, reference compound] has an IC50 of 15 nM. For `C#Cc1ccc(-c2ccc(-c3ccc(CNCCCCCCCCNc4ccnc5ccccc45)cc3)s2)cc1` [Compound 52], the IC50 was 177 nM. Compound `N#Cc1ccc(-c2ccc(-c3ccc(CNCCCCCCNc4ccnc5ccccc45)cc3)s2)cc1` [Compound 44] has an IC50 of 101 nM. `N#Cc1ccc2c(-c3ccc(CNCCCCCCNc4ccnc5ccccc45)cc3)csc2c1` [Compound 32] showed an IC50 of 55 nM. For `N#Cc1ccc(-c2ccc(-c3ccc(CNCCCCCNc4ccnc5cc(Cl)ccc45)cc3)s2)cc1` [Compound 40], the IC50 was 80 nM. With `N#Cc1ccc(-c2ccc(-c3ccc(CNCCNc4ccnc5cc(Cl)ccc45)cc3)s2)cc1` [Compound 37] the IC50 was 49 nM. `N#Cc1ccc2scc(-c3ccc(CNCCCCCCNc4ccnc5ccccc45)cc3)c2c1` [Compound 30] gave an IC50 of 12 nM. `Fc1ccc2c(CNCCCNc3ccnc4ccccc34)csc2c1` [Compound 12] showed an IC50 of 21 nM. `N#Cc1ccc2scc(-c3ccc(CNCCCCNc4ccnc5ccccc45)cc3)c2c1` [Compound 28] was tested, and the IC50 was 6 nM. Compound `c1ccc2sc(CNCCCNc3ccnc4ccccc34)cc2c1` [Compound 8] has an IC50 of 20 nM. Compound `N#Cc1ccc(-c2ccc(-c3ccc(CNCCCCNc4ccnc5ccccc45)cc3)s2)cc1` [Compound 43] has an IC50 of 4 nM. For `c1ccc2sc(CNCCCCNc3ccnc4ccccc34)cc2c1` [Compound 9], the IC50 was 14 nM.

Each compound was assayed on P. falciparum TM91C235 (Thailand, multidrug-resistant (MDR) strain) (assay: Malaria SYBR Green Fluorescence Assay, TM91C235 strain). Details: Plasmodium falciparum, read-out: In Vitro Antimalarial Activity (P. falciparum, IC50, nM) C235.
Assay type: cell-based
In the case of `CCN(CC)CCCC(C)Nc1ccnc2cc(Cl)ccc12` (centres unmarked) [CQ, chloroquine, reference compound], the IC50 is reported as 206 nM. Compound `C#Cc1ccc(-c2ccc(-c3ccc(CNCCCCCCCCNc4ccnc5ccccc45)cc3)s2)cc1` [Compound 52] has an IC50 of 274 nM. In the case of `N#Cc1ccc(-c2ccc(-c3ccc(CNCCCCCCNc4ccnc5ccccc45)cc3)s2)cc1` [Compound 44], the IC50 is reported as 54 nM. Work on `N#Cc1ccc2c(-c3ccc(CNCCCCCCNc4ccnc5ccccc45)cc3)csc2c1` [Compound 32] yielded an IC50 of 29 nM. For `N#Cc1ccc(-c2ccc(-c3ccc(CNCCCCCNc4ccnc5cc(Cl)ccc45)cc3)s2)cc1` [Compound 40], the IC50 was 54 nM. `N#Cc1ccc(-c2ccc(-c3ccc(CNCCNc4ccnc5cc(Cl)ccc45)cc3)s2)cc1` [Compound 37] was tested, and the IC50 was 60 nM. For `N#Cc1ccc2scc(-c3ccc(CNCCCCCCNc4ccnc5ccccc45)cc3)c2c1` [Compound 30], the IC50 was 51 nM. Work on `Fc1ccc2c(CNCCCNc3ccnc4ccccc34)csc2c1` [Compound 12] yielded an IC50 of 191 nM. Work on `N#Cc1ccc2scc(-c3ccc(CNCCCCNc4ccnc5ccccc45)cc3)c2c1` [Compound 28] yielded an IC50 of 129 nM. `c1ccc2sc(CNCCCNc3ccnc4ccccc34)cc2c1` [Compound 8] was tested, and the IC50 was 107 nM. Work on `N#Cc1ccc(-c2ccc(-c3ccc(CNCCCCNc4ccnc5ccccc45)cc3)s2)cc1` [Compound 43] yielded an IC50 of 34 nM. `c1ccc2sc(CNCCCCNc3ccnc4ccccc34)cc2c1` [Compound 9] was tested, and the IC50 was 205 nM.

The compounds below were run on HepG2 (hepatocellular carcinoma) cell line (assay: Compound toxicity in HepG2 cell line). Details: Homo sapiens, HepG2; hepatocellular carcinoma cells.
Assay type: cell-based, human
Method: To investigate possible toxicity issues, the synthesized compounds were evaluated in vitro against a human hepatoma cell line (HepG2).
Synthesized aminoquinolines were screened in vitro against P. falciparum strains: CQ and MFQ susceptible strain D6 (clone of Sierra Leone/UNC isolate), CQ resistant but MFQ susceptible strain W2 (clone of Indochina isolate), and CQ and MFQ resistant strain TM91C235 (clone of South East Asian isolate) using the Malaria SYBR Green Fluorescence Assay. Full method details are given in Supplementary Materials I. Assessment of compound toxicity in a HepG2 (hepatocellular carcinoma) cell line followed the protocol described in Ref. [40].
Work on `C#Cc1ccc(-c2ccc(-c3ccc(CNCCCCCCCCNc4ccnc5ccccc45)cc3)s2)cc1` [Compound 52] yielded an IC50 of 9230 nM. Work on `N#Cc1ccc(-c2ccc(-c3ccc(CNCCCCCCNc4ccnc5ccccc45)cc3)s2)cc1` [Compound 44] yielded an IC50 of 4080 nM. In the case of `N#Cc1ccc2c(-c3ccc(CNCCCCCCNc4ccnc5ccccc45)cc3)csc2c1` [Compound 32], the IC50 is reported as 2050 nM. For `N#Cc1ccc(-c2ccc(-c3ccc(CNCCCCCNc4ccnc5cc(Cl)ccc45)cc3)s2)cc1` [Compound 40], the IC50 was 6700 nM. In the case of `N#Cc1ccc(-c2ccc(-c3ccc(CNCCNc4ccnc5cc(Cl)ccc45)cc3)s2)cc1` [Compound 37], the IC50 is reported as > 30600 nM. `N#Cc1ccc2scc(-c3ccc(CNCCCCCCNc4ccnc5ccccc45)cc3)c2c1` [Compound 30] was tested, and the IC50 was 1980 nM. `Fc1ccc2c(CNCCCNc3ccnc4ccccc34)csc2c1` [Compound 12] showed an IC50 of 4480 nM. Work on `N#Cc1ccc2scc(-c3ccc(CNCCCCNc4ccnc5ccccc45)cc3)c2c1` [Compound 28] yielded an IC50 of 2580 nM. For `c1ccc2sc(CNCCCNc3ccnc4ccccc34)cc2c1` [Compound 8], the IC50 was 8870 nM. `N#Cc1ccc(-c2ccc(-c3ccc(CNCCCCNc4ccnc5ccccc45)cc3)s2)cc1` [Compound 43] was tested, and the IC50 was 8150 nM. In the case of `c1ccc2sc(CNCCCCNc3ccnc4ccccc34)cc2c1` [Compound 9], the IC50 is reported as 4870 nM.

Same assay, conditions: IC50 HepG2 / IC50 D6
With `C#Cc1ccc(-c2ccc(-c3ccc(CNCCCCCCCCNc4ccnc5ccccc45)cc3)s2)cc1` [Compound 52] the “SI HepG2/D6 (selectivity index)” value was 52. With `N#Cc1ccc(-c2ccc(-c3ccc(CNCCCCCCNc4ccnc5ccccc45)cc3)s2)cc1` [Compound 44] the “SI HepG2/D6 (selectivity index)” value was 40. In the case of `N#Cc1ccc2c(-c3ccc(CNCCCCCCNc4ccnc5ccccc45)cc3)csc2c1` [Compound 32], the “SI HepG2/D6 (selectivity index)” value is reported as 37. With `N#Cc1ccc(-c2ccc(-c3ccc(CNCCCCCNc4ccnc5cc(Cl)ccc45)cc3)s2)cc1` [Compound 40] the “SI HepG2/D6 (selectivity index)” value was 84. `N#Cc1ccc2scc(-c3ccc(CNCCCCCCNc4ccnc5ccccc45)cc3)c2c1` [Compound 30] was tested, and the “SI HepG2/D6 (selectivity index)” value was 162. In the case of `Fc1ccc2c(CNCCCNc3ccnc4ccccc34)csc2c1` [Compound 12], the “SI HepG2/D6 (selectivity index)” value is reported as 211. For `N#Cc1ccc2scc(-c3ccc(CNCCCCNc4ccnc5ccccc45)cc3)c2c1` [Compound 28], the “SI HepG2/D6 (selectivity index)” value was 401. In the case of `c1ccc2sc(CNCCCNc3ccnc4ccccc34)cc2c1` [Compound 8], the “SI HepG2/D6 (selectivity index)” value is reported as 440. `N#Cc1ccc(-c2ccc(-c3ccc(CNCCCCNc4ccnc5ccccc45)cc3)s2)cc1` [Compound 43] was tested, and the “SI HepG2/D6 (selectivity index)” value was 2038. `c1ccc2sc(CNCCCCNc3ccnc4ccccc34)cc2c1` [Compound 9] was tested, and the “SI HepG2/D6 (selectivity index)” value was 339.
